How the values were obtained:
Cyp1b1 mRNA in PBLs = assay: Cyp1b1 gene expression in peripheral blood lymphocytes; type: in vivo, female C57BL/6 mice; conditions: for BMR20TCDD PBLs Cyp1b1 mRNA: 3 days after single oral dose; for REP PBLs Cyp1b1 mRNA: relative to TCDD; for Effect on Cyp1b1 mRNA in PBLs: single oral dose
Protocol: (§1) Animals. Eight-week-old female C57BL/6 mice (Harlan laboratories, Venray, the Netherlands) were randomly assigned to treatment groups (six animals per group) and allowed to acclimate for 1.5 weeks. The animals were housed in groups in standard cages and conditions (23 ± 2°C, 50–60% relative humidity, 12-hr dark/light cycle) with free access to food and water. Mice received a single dose of test compound by oral gavage at a dosing volume of 10 mL/kg body weight (BW). Mice treated with corn oil vehicle (10 mL/kg BW) served as controls. For each congener, five different doses were administered, ranging from 0.5–100 μg/kg BW (TCDD) to 5,000–500,000 µg/kg BW (PCB-153). Detailed information on doses is provided in Supplemental Material, Table S1 (http://dx.doi.org/10.1289/ehp.1206336). On day 3 after dosing, animals were euthanized by CO2/O2 asphyxiation, and blood was immediately collected from the abdominal aorta. The liver, thymus, spleen, and adipose tissue were removed, weighed (liver, thymus, and spleen), snap frozen, and stored at –80°C. All animal treatments were performed with permission of the Animal Ethical Committee (DEC Utrecht) and performed according to the [Law on Animal Experiments (1977)]. Animals were treated humanely and with regard for alleviation of suffering.
(§2) Plasma and PBL isolation. Blood from two mice was pooled (total volume of approximately 1.4 mL); plasma and PBLs were then isolated using Ficoll Paque gradient (GE Healthcare Europe, Diegem, Belgium). Plasma samples were stored at –80°C until compound analysis. Isolated lymphocytes were lysed with RLT buffer (QIAGEN, Venlo, the Netherlands) as described in the QIAGEN RNAeasy kit protocol and stored at –80°C until use.
RNA isolation and quantitative real-time polymerase chain reaction (PCR). Total RNA was isolated from liver and PBLs using a QIAGEN RNeasy kit (QIAGEN). Purity and concentration of the isolated RNA was determined by measuring the absorbance ratio at 260/280 nm and 230/260 nm with a Nanodrop 2000 spectrophotometer (Thermo Scientific, Asheville, NC, USA). RNA was reverse transcribed to complementary DNA (cDNA) using the iScript cDNA synthesis Kit (Bio-Rad, Veenendaal, the Netherlands). Quantitative real-time PCR analyses were performed using the iQ Real-Time PCR Detection System with SYBR green (Bio-Rad). Amplification reactions were set up with […] containing 12.5 μL iQ SYBR Green Supermix (Bio-rad), 0.5 μL distilled H2O, 1 μL (10 μM) forward primer, 1 μL (10 μM) reverse primer, and 10 μL first strand cDNA (10X diluted). Primer sequences were as follows: Cyp1a1: forward-5´-GGTTAACCATGACCGGGAACT-3´ and reverse-5´-TGCCCAAACCAAAGAGAGTGA-3´ ([Schulz et al. 2012]); Cyp1a2: forward-5´-ACATTCCCAAGGAGCGCTGTATCT-3´ and reverse-5´-GTCGATGGCCGAGTTGTTATTGGT-3´ ([Flaveny et al. 2010]); Cyp1b1: forward-5´-GTGGCTGCTCATCCTCTTTACC-3´ and reverse-5´-CCCACAACCTGGTCCAACTC-3´ ([Berge et al. 2004]); β-actin: forward-5´-ATGCTCCCCGGGCTGTAT-3´ and reverse-5´-CATAGGAGTCCTTCTGACCCATTC-3´ ([Schulz et al. 2012]). All primers were run through the National Center for Biotechnology Information Primer-BLAST database (http://www.ncbi.nlm.nih.gov/tools/primer-blast/) to confirm specificity and validate for optimal annealing temperature (60°C for all primers) and efficiency. The efficiency of all primer pairs was 98–102% (tested at 60°C). The following program was used for denaturation and amplification of cDNA: 3 min at 95°C, followed by 40 cycles of 15 sec at 95°C and 45 sec at 60°C. Gene expression for each sample was expressed as threshold cycle (Ct), normalized to the reference gene β-actin (ΔCt). We calculated fold induction relative to the control group.
Data analysis. We obtained concentration–response curves using a sigmoidal dose–response nonlinear regression curve fit with variable slope (GraphPad Prism 6.01; GraphPad Software Inc., San Diego, CA, USA): […]

[1] = Compound analysis: liver, adipose and plasma concentrations 3 days after a single oral dose; type: in vivo, female C57BL/6 mice; conditions: for Adipose % dose / g tissue / liver:adipose ratio (hepatic sequestration criterion 0.3) / Liver % dose / g tissue / Plasma % dose / g tissue / tissue uptake: 3 days after single oral dose; for liver:adipose ratio (hepatic sequestration criterion 0.3): Table 1 doses; for Liver:adipose ratio: based on ng/g tissue, day 3; for tissue uptake: female, C57BL/6, mouse, in vivo
Protocol: as §1
Compound analysis. Adipose and liver tissues samples were homogenized in Na2SO4, followed by extraction and clean-up in one step, and then eluted with 200 mL 1:1 hexane:dichloromethane on an open column packed with 40% wt/wt H2SO4-impregnated silica and KOH-silica. Blood plasma samples were extracted on an open column using Chem-Elut (Agilent Technologies, Santa Clara, CA, USA) and then NaCl eluted with 75 mL 3:2 hexane:2-propanol. Clean-up was performed using a miniaturized silica column (as described above), and samples were eluted using 30 mL hexane. Because the samples typically contained high levels of the analytes, only a small fraction was evaporated and analyzed. Prior to evaporation, we spiked a fraction of the samples with ^13C-labeled standards. We checked potential loss of analytes during extraction and clean-up by reextracting the samples using the identical protocol used for the samples. […] Tetradecane was added prior to evaporation. Sample analysis followed the U.S. Environmental Protection Agency Method 1613 ([U.S. Environmental Protection Agency 1994]) using single ion monitoring mode on an Agilent 6809N gas chromatograph (Agilent Technologies) coupled with a Micromass Ultima Autospec Ultra high-resolution mass spectrometer (HRMS; Waters Corp., Milford, MA, USA). Compounds were separated on a 60 m × 0.25 mm DB5-MS column ([…]; J&W Scientific, Folsom, CA, USA). The HRMS was operated with electron impact ionization with electron energy of 35 eV and an ion source temperature of 250°C. To reduce the number of analyses, samples were pooled before clean-up. […] This method was used because full congener–specific separation could be achieved on the high-resolution GC–HRMS. For lipid determination, samples were evaporated to dryness after the extraction step, and the amount of lipids was determined gravimetrically. Concentrations were calculated based on lipid weight and wet weight. The analysis of samples for the PCB-118 5,000 μg/kg BW dose failed during the procedure; thus analysis for this group could not be completed.
as §2

## Clc1cc2oc3c(Cl)c(Cl)c(Cl)cc3c2cc1Cl [Congener 4-PeCDF, 2,3,4,7,8-pentachlorodibenzofuran]
Cyp1b1 mRNA in PBLs; dose metric Adm dose
  BMR20TCDD PBLs Cyp1b1 mRNA: 514 µg/kg BW
Cyp1b1 mRNA in PBLs; dose metric Syst plasma
  BMR20TCDD PBLs Cyp1b1 mRNA: 212 ng/g lipid
Cyp1b1 mRNA in PBLs; dose metric Adm dose (µg/kg BW)
  REP PBLs Cyp1b1 mRNA: 0.04
Cyp1b1 mRNA in PBLs; dose metric Syst plasma (ng/g lipid)
  REP PBLs Cyp1b1 mRNA: 0.3
Cyp1b1 mRNA in PBLs; day 3
  Effect on Cyp1b1 mRNA in PBLs: dose-dependently induced
[1]; oral dose 5 µg/kg bw
  Adipose % dose / g tissue: 3.4 % dose / g tissue
[1]; oral dose 25 µg/kg bw
  Adipose % dose / g tissue: 3.0 % dose / g tissue
[1]; oral dose 100 µg/kg bw
  Adipose % dose / g tissue: 3.5 % dose / g tissue

## Clc1ccc(-c2cc(Cl)c(Cl)cc2Cl)cc1Cl [PCB-118, 2,3´,4,4´,5-pentachlorobiphenyl]
Cyp1b1 mRNA in PBLs; day 3
  Effect on Cyp1b1 mRNA in PBLs: did not induce
[1]
  liver:adipose ratio (hepatic sequestration criterion 0.3): < 0.3
[1]; dose 15,000 μg/kg BW
  Liver:adipose ratio: 0.08±0.01
[1]; dose 50,000 μg/kg BW
  Liver:adipose ratio: 0.07±0.02
[1]; oral dose 15000 µg/kg bw
  Adipose % dose / g tissue: 32 % dose / g tissue
  Liver % dose / g tissue: 2.6 % dose / g tissue
  Plasma % dose / g tissue: 0.054 % dose / g tissue
[1]; oral dose 50000 µg/kg bw
  Adipose % dose / g tissue: 33 % dose / g tissue
  Liver % dose / g tissue: 2.2 % dose / g tissue
  Plasma % dose / g tissue: 0.067 % dose / g tissue
[1]; oral dose 150000 µg/kg bw
  Liver % dose / g tissue: 2.2 % dose / g tissue
  Plasma % dose / g tissue: 0.062 % dose / g tissue
[1]; oral dose 500000 µg/kg bw
  Plasma % dose / g tissue: 0.05 % dose / g tissue

## Clc1ccc(-c2cc(Cl)c(Cl)c(Cl)c2)cc1Cl [PCB-126, 3,3´,4,4´,5-pentachlorobiphenyl]
Cyp1b1 mRNA in PBLs; highest dose tested, day 3
  Induction of Cyp1b1 mRNA in PBLs, of the maximal induction of TCDD: 3.5%
[1]
  liver:adipose ratio (hepatic sequestration criterion 0.3): > 0.3
[1]; dose 5 μg/kg BW
  Liver:adipose ratio: 3.2±0.3
[1]; dose 25 μg/kg BW
  Liver:adipose ratio: 5.9±0.9
[1]; dose 100 μg/kg BW
  Liver:adipose ratio: 9.1±0.9
[1]; oral dose 5 µg/kg bw
  Adipose % dose / g tissue: 12 % dose / g tissue
  Liver % dose / g tissue: 38 % dose / g tissue
  Plasma % dose / g tissue: 0.035 % dose / g tissue
[1]; oral dose 25 µg/kg bw
  Adipose % dose / g tissue: 11 % dose / g tissue
  Liver % dose / g tissue: 65 % dose / g tissue
  Plasma % dose / g tissue: 0.018 % dose / g tissue
[1]; oral dose 100 µg/kg bw
  Adipose % dose / g tissue: 5.5 % dose / g tissue
  Liver % dose / g tissue: 51 % dose / g tissue
  Plasma % dose / g tissue: 0.012 % dose / g tissue
[1]; oral dose 250 µg/kg bw
  Plasma % dose / g tissue: 0.013 % dose / g tissue
[1]; oral dose 1000 µg/kg bw
  Plasma % dose / g tissue: 0.014 % dose / g tissue

## Clc1cc(Cl)c(-c2cc(Cl)c(Cl)cc2Cl)cc1Cl [PCB-153, 2,2´,4,4´,5,5´-hexachlorobiphenyl]
Cyp1b1 mRNA in PBLs; day 3
  Effect on Cyp1b1 mRNA in PBLs: did not induce
[1]
  liver:adipose ratio (hepatic sequestration criterion 0.3): < 0.3
[1]; dose 5,000 μg/kg BW
  Liver:adipose ratio: 0.08±0.02
[1]; dose 15,000 μg/kg BW
  Liver:adipose ratio: 0.11±0.02
[1]; dose 50,000 μg/kg BW
  Liver:adipose ratio: 0.08±0.03
[1]; oral dose 5000 µg/kg bw
  tissue uptake: 0.075 %ID/g
  Adipose % dose / g tissue: 23 % dose / g tissue
  Liver % dose / g tissue: 1.8 % dose / g tissue
[1]; oral dose 15000 µg/kg bw
  Adipose % dose / g tissue: 25 % dose / g tissue
  Liver % dose / g tissue: 2.5 % dose / g tissue
  Plasma % dose / g tissue: 0.052 % dose / g tissue
[1]; oral dose 50000 µg/kg bw
  Adipose % dose / g tissue: 25 % dose / g tissue
  Liver % dose / g tissue: 2.0 % dose / g tissue
  Plasma % dose / g tissue: 0.060 % dose / g tissue
[1]; oral dose 150000 µg/kg bw
  Plasma % dose / g tissue: 0.050 % dose / g tissue
[1]; oral dose 500000 µg/kg bw
  Plasma % dose / g tissue: 0.042 % dose / g tissue

## Clc1ccc(-c2cc(Cl)c(Cl)c(Cl)c2Cl)cc1Cl [PCB-156, 2,3,3´,4,4´,5-hexachlorobiphenyl]
Cyp1b1 mRNA in PBLs; day 3
  Effect on Cyp1b1 mRNA in PBLs: did not induce
[1]
  liver:adipose ratio (hepatic sequestration criterion 0.3): < 0.3
[1]; dose 5,000 μg/kg BW
  Liver:adipose ratio: 0.09±0.02
[1]; dose 15,000 μg/kg BW
  Liver:adipose ratio: 0.11±0.03
[1]; dose 50,000 μg/kg BW
  Liver:adipose ratio: 0.12±0.02
[1]; oral dose 5000 µg/kg bw
  tissue uptake: 0.079 %ID/g
  Adipose % dose / g tissue: 25 % dose / g tissue
  Liver % dose / g tissue: 2.2 % dose / g tissue
[1]; oral dose 15000 µg/kg bw
  Adipose % dose / g tissue: 22 % dose / g tissue
  Liver % dose / g tissue: 2.3 % dose / g tissue
  Plasma % dose / g tissue: 0.061 % dose / g tissue
[1]; oral dose 50000 µg/kg bw
  Adipose % dose / g tissue: 34 % dose / g tissue
  Liver % dose / g tissue: 4.1 % dose / g tissue
  Plasma % dose / g tissue: 0.066 % dose / g tissue
[1]; oral dose 150000 µg/kg bw
  Liver % dose / g tissue: 3.0 % dose / g tissue
  Plasma % dose / g tissue: 0.045 % dose / g tissue
[1]; oral dose 500000 µg/kg bw
  Plasma % dose / g tissue: 0.037 % dose / g tissue

From article PMC3702004, “Comparison of Intake and Systemic Relative Effect Potencies of Dioxin-like Compounds in Female Mice after a Single Oral Dose” (Environmental Health Perspectives, 2013)
